Test results taken from patent US20260226026A1, “COMPOUND AS CTPS1 INHIBITOR” (Hangzhou Innogate Pharma Co., Ltd., priority 2023, published 2026).
Read-outs that look alike come from different tables or passages of the source.

Assays:
[1] = biological target: T1, hCTPS1 enzyme (Homo sapiens, UniProt P17812); experiment: Inhibition of CTPS1 enzyme activity (ADP-Glo method); format: biochemical; conditions: hCTPS1, 90 min reaction at 25° C.
T1 sequence (P17812 1-591): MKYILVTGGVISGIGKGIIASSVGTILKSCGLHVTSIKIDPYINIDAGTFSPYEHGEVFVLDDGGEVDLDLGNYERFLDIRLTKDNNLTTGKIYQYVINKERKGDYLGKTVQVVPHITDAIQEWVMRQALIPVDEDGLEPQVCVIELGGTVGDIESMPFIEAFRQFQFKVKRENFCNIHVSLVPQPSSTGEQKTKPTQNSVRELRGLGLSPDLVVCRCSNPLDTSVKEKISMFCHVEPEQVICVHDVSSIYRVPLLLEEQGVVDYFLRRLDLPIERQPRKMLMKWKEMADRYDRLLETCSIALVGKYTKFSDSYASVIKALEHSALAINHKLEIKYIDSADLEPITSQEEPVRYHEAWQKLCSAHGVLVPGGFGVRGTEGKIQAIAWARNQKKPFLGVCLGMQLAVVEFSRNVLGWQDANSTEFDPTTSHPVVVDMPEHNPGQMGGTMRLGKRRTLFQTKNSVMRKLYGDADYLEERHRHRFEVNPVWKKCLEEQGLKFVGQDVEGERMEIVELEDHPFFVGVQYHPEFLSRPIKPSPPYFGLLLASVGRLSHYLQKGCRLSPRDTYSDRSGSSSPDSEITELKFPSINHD
Description: The enzyme activity of CTPS1 was tested using the ADP-Glo method. Compounds were serially diluted in DMSO with 3-fold gradients across ten concentrations. Transfer 0.1 μL of diluted compound to a 384-well plate, centrifuge at 1000 rpm for 1 min. Add 2.5 μL of hCTPS1 enzyme working solution, centrifuge at 1000 rpm for 1 min, and incubate at 25° C. for 10 min. Add 2.5 μL of ATP & UTP solution and incubate at 25° C. for 10 min. Add 5 μL of substrate solution to initiate the reaction and incubate at 25° C. for 90 min. Add 10 μL of ADP-Glo solution to the 384-well plate, centrifuge at 1000 rpm for 1 min, incubate at 25° C. for 40 min, add 20 μL of detection solution, centrifuge at 1000 rpm for 1 min, and incubate at 25° C. for 60 min. […] were read using a BMG microplate reader. Inhibition rate (%) was calculated as follows: Inhibition rate (%)=[(DMSO control well signal−Compound well signal)/(DMSO control well signal−Blank control well signal)]×100%. IC50 values for compounds were analyzed by nonlinear regression in XLFit 5.5.0 software using the formula: Y=Bottom+(Top−Bottom)/(1+10^((LogIC50−X)*HillSlope)) where Y is the inhibition rate and X is the log value of compound concentration.

[2] = test system: Jurkat cells; experiment: Inhibition of Jurkat cell proliferation (CellTiter-Glo, 72 hours); format: cell-based; conditions: Homo sapiens
Description: Select Jurkat cells in good growth condition and digest them with trypsin. Add fresh culture medium, mix thoroughly, and centrifuge at 1000 rpm for 5 minutes. Seed the cells into a 96-well plate at a density of 10,000 cells per well, and incubate overnight in a 37° C. incubator. On the following day, take out of the culture plate and treat the cells with compounds prepared in a five-fold serial dilution. Return the plate to the 37° C. incubator and continue incubation for 72 hours.
After incubation, bring out the cell culture plate and equilibrate it to room temperature. Add 100 μL of CellTiter-Glo reagent to each well, shake in the dark for 2 minutes, and incubate for 10 minutes. Measure the luminescence using an Enspire plate reader. Calculate the inhibition rate using the following formula: Inhibition rate (%)=(1−(RLU_compound−RLU_blank)/(RLU_DMSO−RLU_blank))×100%. Plot the dose-response curve and calculate the IC50 value using XLFit.

[3] = in vivo; parameters: species or system SD rats; conditions: male, SD, rat, po
Description: Instrumentation: SCIEX Triple Quad 6500+ triple quadrupole liquid chromatography-mass spectrometry system (LC-MS/MS), operating software is Analyst 1.7.2 (Applied Biosystems, USA); ExionLC liquid chromatography system; Microsoft Excel was used for data calculation and processing. Pharmacokinetic parameters were calculated using the statistical moment method with WinNonlin 8.2 software. Key kinetic parameters included Tmax, T1/2, Cmax, AUC0-24 h etc. Column: Synergi 4 μm Fusion-RP 80 Å Luna C18 2 mm*50 mm, 4 μm; Column temperature: 40° C.; Mobile phase A: Water (0.1% formic acid); Mobile phase B: Acetonitrile; Flow rate: 0.8 mL/min; Gradient elution is adopted, the elution gradient is 0.10 min: 15% B; 1.60 min: 95% B; 1.90 min: 95% B; 1.91 min: 15% B; 2.20 min: 15% B. Injection volume: 1 μL.
Animals: 3 male SD rats with a weight range of 200-220 g were purchased and kept in the laboratory of the Experimental Animal Center for 3 days and then used. They were fasted for 12 hours predose and 4 hours after dosing. Drinking water was free during the test. After the rats were gavage, blood samples were taken according to the established time point.
Solvent: 0.4% ethanol+0.4% Tween80+99.2% (0.5% methylcellulose M450). Preparation of the solution for intragastric administration: Compounds were accurately weighed and added to the solvent. The mixture was then subjected to vortex mixing and sonication until a homogeneous suspension was achieved, thereby preparing medicinal solutions of the desired concentrations.
Compound samples: Typically, multiple structurally analogous compounds (with molecular weights differing by more than 2 units) were accurately weighed and administered together (cassette PK). This approach allows for the simultaneous screening of multiple compounds and comparison of their oral absorption rates. Single compound administration was also employed to study the pharmacokinetics of drug samples in rats.
After intragastric administration, blood was collected from the jugular vein at 0.25, 0.5, 1, 2, 4, 8, 10 and 24 hours. Transfer 20 μL of plasma sample (for blank samples and internal standard blank samples, add 20 μL of blank plasma) to a 1.5 mL centrifuge tube, add 200 μL of internal standard solution (50% methanol in acetonitrile (concentration 100 ng/mL)) (for Double blank samples, add 200 μL of 50% methanol in acetonitrile solution). Vortex the samples for 5 minutes, then centrifuge at 14000 rpm and 4° C. for 5 minutes. Transfer 80 μL and add to 80 μL of water, mix uniformly, and submit for LC-MS/MS analysis.
The compounds were accurately weighed to prepare different concentrations, and quantitative analysis on mass spectrometry was performed to establish a standard curve, and then the concentration of the above-mentioned compound in the plasma was tested to obtain its concentration at different time points. All measurement data were collected and processed by relevant software, and the statistical moment method was used to calculate the pharmacokinetic parameters (mainly including kinetic parameters Tmax, T1/2, Cmax, AUC0-24 h etc).

[4] = Jurkat cells, 72 hours, CellTiter-Glo, read-out: Jurkat (IC50)

Compound: CCOc1cncc(-c2ccc(NC(=O)C3(c4ccnc(NS(=O)(=O)C5CC5)n4)CCN(C4CC(=C(F)F)C4)CC3)nc2)n1 (stereo not drawn) [Compound 31]
- IC50 [1]: < 100 nM
- IC50 [2, 4]: < 50 nM

Compound: CCOc1cncc(-c2ccc(NC(=O)C3(c4ccnc(NS(=O)(=O)C5CC5)n4)CCC(=CCN(C)C)CC3)nc2)n1 (stereo not drawn) [Compound 15]
- IC50 [1]: < 100 nM
- IC50 ([2]; Jurkat, 72 h, read-out: Jurkat (IC50, nM)): < 50 nM

Compound: CCOc1cncc(-c2ccc(NC(=O)C3(c4ccnc(NS(=O)(=O)C5CC5)n4)CCC(=C(C)C)CC3)nc2)n1 (stereo not drawn) [Compound 2]
- IC50 [1]: < 50 nM
- IC50 [2, 4]: < 50 nM

Compound: CCOc1cncc(-c2ccc(NC(=O)C3(c4ccnc(NS(=O)(=O)C5CC5)n4)CCC(=Cc4cccnc4)CC3)nc2)n1 (stereo not drawn) [Compound 55]
- IC50 [1]: < 25 nM
- IC50 [2, 4]: < 50 nM

Compound: CCOc1cncc(-c2ccc(NC(=O)C3(c4ccnc(NS(=O)(=O)C5CC5)n4)CCC(=C(F)CN4CCOCC4)CC3)nc2)n1 (stereo not drawn) [Compound 54]
- IC50 [1]: < 50 nM
- IC50 [2, 4]: < 50 nM

Compound: CCOc1cncc(-c2ccc(NC(=O)C3(c4ccnc(NS(=O)(=O)C5CC5)n4)CCC(=C(F)CC4COC4)CC3)nc2)n1 (stereo not drawn) [Compound 69]
- IC50 [1]: < 50 nM
- IC50 [2, 4]: < 15 nM
- AUC(0-t) ([3]; 2 mg/kg): 11300 ng·h/mL
- Cmax ([3]; 2 mg/kg): 2330 ng/mL
- Tmax ([3]; 2 mg/kg): 1.83 h
- half-life ([3]; 2 mg/kg): 1.89 h

Compound: CCOc1cncc(-c2ccc(NC(=O)C3(c4ccnc(NS(=O)(=O)C5CC5)n4)CCC(=CCC4COC4)CC3)nc2)n1 (stereo not drawn) [Compound 63]
- IC50 [1]: < 25 nM
- IC50 [2, 4]: < 15 nM
- AUC(0-t) ([3]; 3 mg/kg): 37600 ng·h/mL
- Cmax ([3]; 3 mg/kg): 4820 ng/mL
- Tmax ([3]; 3 mg/kg): 2.33 h
- half-life ([3]; 3 mg/kg): 3.03 h

Compound: CCOc1cncc(-c2ccc(NC(=O)C3(c4ccnc(NS(=O)(=O)C5CC5)n4)CC(=CC(=O)OC)C3)nc2)n1 (stereo not drawn) [Compound 14]
- IC50 [1]: < 50 nM
- IC50 [2, 4]: < 30 nM

Compound: CCOc1cncc(-c2ccc(NC(=O)C3(c4ccnc(NS(=O)(=O)C5CC5)n4)CCC(=CCOC)CC3)nc2)n1 (single isomer, unassigned) [Compound 18]
- IC50 [1]: < 50 nM
- IC50 [2, 4]: < 50 nM

Compound: CCOc1cncc(-c2ccc(NC(=O)C3(c4ccnc(NS(=O)(=O)C5CC5)n4)CCC(=C(F)F)CC3)nc2)n1 (stereo not drawn) [Compound 1]
- IC50 [1]: < 25 nM
- IC50 [2, 4]: < 30 nM
- AUC(0-t) ([3]; 3 mg/kg): 68800 ng·h/mL
- Cmax ([3]; 3 mg/kg): 11300 ng/mL
- Tmax ([3]; 3 mg/kg): 0.83 h
- half-life ([3]; 3 mg/kg): 4.98 h

Compound: CCOc1cncc(-c2ccc(NC(=O)C3(c4ccnc(NS(=O)(=O)C5CC5)n4)CC(=CC4CCOCC4)C3)nc2)n1 (stereo not drawn) [Compound 48]
- IC50 [1]: < 100 nM
- IC50 [2, 4]: < 30 nM

Compound: CCOc1cncc(-c2ccc(NC(=O)C3(c4ccnc(NS(=O)(=O)C5CC5)n4)CCC(=CC4COC4)CC3)nc2)n1 (stereo not drawn) [Compound 36]
- IC50 [1]: < 25 nM
- IC50 [2, 4]: < 5 nM
- AUC(0-t) ([3]; 3 mg/kg): 6250 ng·h/mL
- Cmax ([3]; 3 mg/kg): 3770 ng/mL
- Tmax ([3]; 3 mg/kg): 0.25 h
- half-life ([3]; 3 mg/kg): 2.8 h

Compound: CCOc1cncc(-c2ccc(NC(=O)C3(c4ccnc(NS(=O)(=O)C5CC5)n4)CCC(=C(C)F)CC3)nc2)n1 (stereo not drawn) [Compound 37]
- IC50 [1]: < 25 nM
- IC50 [2, 4]: < 30 nM

Compound: CCOc1cncc(-c2ccc(NC(=O)C3(c4ccnc(NS(=O)(=O)C5CC5)n4)CCC(=C(C)CO)CC3)nc2)n1 (stereo not drawn) [Compound 47]
- IC50 [1]: < 25 nM
- IC50 [2, 4]: < 15 nM
- AUC(0-t) ([3]; 2 mg/kg): 1410 ng·h/mL
- Cmax ([3]; 2 mg/kg): 1820 ng/mL
- Tmax ([3]; 2 mg/kg): 0.25 h
- half-life ([3]; 2 mg/kg): 2.01 h

Compound: CCOc1cncc(-c2ccc(NC(=O)C3(c4ccnc(NS(=O)(=O)C5CC5)n4)CCC(=CCN4CC(O)C4)CC3)nc2)n1 (stereo not drawn) [Compound 27]
- IC50 [1]: < 50 nM
- IC50 [2, 4]: < 100 nM

Compound: CCOc1cncc(-c2ccc(NC(=O)C3(c4ccnc(NS(=O)(=O)C5CC5)n4)CCC(=CCNS(C)(=O)=O)CC3)nc2)n1 (stereo not drawn) [Compound 23]
- IC50 [1]: < 50 nM
- IC50 [2, 4]: < 50 nM

Compound: CCOc1cncc(-c2ccc(NC(=O)C3(c4ccnc(NS(=O)(=O)C5CC5)n4)CCC(=CCN4CCOCC4)CC3)nc2)n1 (stereo not drawn) [Compound 11]
- IC50 [1]: < 25 nM
- IC50 [2, 4]: < 15 nM

Compound: CCOc1cncc(-c2ccc(NC(=O)C3(c4ccnc(NS(=O)(=O)C5CC5)n4)CCC(=CC4(C)COC4)CC3)nc2)n1 (stereo not drawn) [Compound 62]
- IC50 [1]: < 25 nM
- IC50 [2, 4]: < 15 nM

Compound: CCOc1cncc(-c2ccc(NC(=O)C3(c4ccnc(NS(=O)(=O)C5CC5)n4)CCC(=CCN4CCCC4)CC3)nc2)n1 (stereo not drawn) [Compound 16]
- IC50 [1]: < 50 nM
- IC50 [2, 4]: < 50 nM

Compound: CCOc1cncc(-c2ccc(NC(=O)C3(c4ccnc(NS(=O)(=O)C5CC5)n4)CCC(=CC#N)CC3)nc2)n1 (stereo not drawn) [Compound 8]
- IC50 [1]: < 50 nM
- IC50 [2, 4]: < 15 nM

Compound: CCOc1cncc(-c2ccc(NC(=O)C3(c4ccnc(NS(=O)(=O)C5CC5)n4)CCC(=CCN4CCN(C)CC4)CC3)nc2)n1 (stereo not drawn) [Compound 13]
- IC50 [1]: < 50 nM
- IC50 [2, 4]: < 50 nM

Compound: CCOc1cncc(-c2ccc(NC(=O)C3(c4ccnc(NS(=O)(=O)C5CC5)n4)CCC(=CCN(C)CCOC)CC3)nc2)n1 (stereo not drawn) [Compound 29]
- IC50 [1]: < 100 nM
- IC50 [2, 4]: < 30 nM

Compound: CCOc1cncc(-c2ccc(NC(=O)C3(c4ccnc(NS(=O)(=O)C5CC5)n4)CCC(=CCCOC)CC3)nc2)n1 (stereo not drawn) [Compound 45]
- IC50 [1]: < 25 nM
- IC50 [2, 4]: < 30 nM
